{"source": "patent US20240350481A1", "about": "“USE OF N-MYRISTOYL TRANSFERASE (NMT) INHIBITORS IN THE TREATMENT OF CANCER, AUTOIMMUNE DISORDERS, AND INFLAMMATORY DISORDERS” (PACYLEX PHARMACEUTICALS INC., priority 2020, published 2024)", "key": {"T cells": {"test_system": "T cells", "test": "Multiplex cytokine array, activated T cell supernatant", "assay_type": "cell-based, human", "conditions": "48 h drug, then T cell activator with drug 2 more days", "experimental": "(§1) Human peripheral blood mononuclear cells (PBMC) and purified T cells from healthy donors were purchased from […] Technologies (CA). Cells (7.5×10^6/ml) were cultured in the RPMI supplementing with 10% heat-inactivated fetal bovine serum (vWR), 1% penicillin/streptomycin (SigmaMillipore), 1% sodium pyruvate, and 1% non-essential amino acids (Gibco) in 24 well plates in the presence of 100 IU/ml interleukin 2 ([…] Technologies or HIV reagent program (managed by ATCC).\n(§2) Then, cells were induced with T cell activator ([…]) in the presence of the drugs for 2 more days. After 4 days, the viability of treated T cells was analyzed using Flow cytometry. The supernatants for both PBMC and T cells were collected for further analysis.\nThe collected supernatants were analyzed for various biomarkers using multiplex cytokine array (Eve Technologies Discovery assay, Calgary, CA) either human cytokine/chemokine 71-Plex (HD71) for PBMC or human proinflammatory focused 15-Plex (HDF15) for T cells samples."}, "[1]": {"test": "T cell viability by flow cytometry", "assay_type": "cell-based", "conditions": "human; for viability at 4 days, 20 nM: Drug 20 nM; for viability at 4 days, 100 nM: Drug 100 nM; for viability at 4 days, 500 nM: Drug 500 nM", "experimental": "as §1, §2"}, "[2]": {"test_system": "Src and Lyn SFK protein levels", "test": "SFK protein levels (Western blot)", "assay_type": "cell-based", "conditions": "BL2 cells treated with PCLX-001, 10 μM MG132 for the last 6 hrs", "experimental": "Cells were harvested, washed in cold PBS, and lysed in […] SDS-RIPA buffer (50 mM Tris-HCl pH 8.0, 150 mM NaCl, 1% Igepal CA-630, 0.5% sodium deoxycholate, 2 mM MgCL2, 2 mM EDTA with 1×complete protease inhibitor; (Roche Diagnostics) by rocking for 15 min at 4° C. The lysates were centrifuged at 16,000 g for 10 min at 4° C., and the post-nuclear supernatant was collected.\nProtein concentrations were determined by BCA assay (Thermo Scientific) according to manufacturer's instructions. Samples were prepared for electrophoresis by the addition of 5× loading buffer and boiled for 5 min. If not stated otherwise, […] of total protein per lane is loaded on a 12.5% acrylamide gels. After electrophoresis, gels are transferred onto […] nitrocellulose membrane (Bio-Rad) thereafter probed with antibodies as described in materials section."}, "[3]": {"conditions": "Mouse IV; cited from earlier work"}, "[4]": {"test_system": "BCR signaling in BL2 cells", "test": "BCR signaling after anti-IgM in BL2 cells (Western blot)", "assay_type": "cell-based", "conditions": "0.1 or 1.0 μM, 48 hrs", "experimental": "IM9, Ramos, SU-DHL-10 and COS-7 were purchased from ATCC. BL2, DOHH2, WSU-DLCL2 & BJAB were purchased from DSMZ (Germany). Ramos and BL2 were kind gifts of Drs. Jim Stone and Robert […] of University of Alberta. VDS isolation was described in Tosato G, et al. (reference 47). VDS, BJAB and SU-DHL-10 were kind gifts of Dr. Michael Gold of the University of British Columbia. HUVEC cells (pooled from up to 4 umbilical cords) were purchased from PromoCell. […] Cell lines were tested regularly for mycoplasma contamination using MycoAlert Plus Mycoplasma Detection Kit (Lonza, ME, USA). All cell lines tested negative for mycoplasma contamination. […] Please see supplementary Table 3 for cell line names, types and histology. For transfections, adherent cells COS-7 cells were transfected using X-tremeGENE9 DNA (Roche) transfection reagent according to manufacturer's instructions. For BCR activation experiments, cells were incubated with 25 μg/ml of Goat F(ab')2 anti-human IgM (or anti-human IgM (μ chain) showing identical BCR activation properties) for 2 minutes and the activation was stopped by the addition of 1 mM vanadate (Bio Basic Inc) solution in PBS. Protein concentrations were determined by BCA assay (Thermo Scientific) according to manufacturer's instructions. Samples were prepared for electrophoresis by the addition of 5× loading buffer and boiled for 5 min. […]"}, "DOHH2 tumors": {"test_system": "DOHH2 tumors", "test": "DOHH2 xenograft, tumor growth", "assay_type": "in vivo, mouse", "conditions": "doxorubicin treatment", "experimental": "DOHH2 xenograft study at Charles River's facility: […] On Day 1 of the study, animals were given a rehydration solution ad libitum in an effort to reduce dehydration during the dosing phase of the study. […] The dose volume was 10 mL/kg."}, "BL2 xenografts": {"test_system": "BL2 xenografts", "test": "BL2 xenograft, tumor growth", "assay_type": "in vivo, mouse", "conditions": "doxorubicin", "excerpt": "BL2 xenograft study at Jackson Laboratory: One hundred five (105) 6 week old female NOD.CB17-Prkdc scid/J (NOD scid, Stock #001303) mice were transferred to the in vivo research laboratory in Sacramento, CA. The mice were ear notched for identification and housed in individually and positively ventilated polysulfone cages with HEPA filtered air at a density of 5 mice per cage. Initially cages were changed every two weeks. The animal room was lighted entirely with artificial fluorescent lighting, with a controlled 12 hour light/dark cycle (6 am to 6 pm light). The normal temperature and relative humidity ranges in the animal rooms were 20-26° C. and 30-70%, respectively. The animal rooms were set to have up to 15 air exchanges per hour. Filtered tap water, acidified to a pH of 2.5 to 3.0, and standard lab chow were provided ad libitum.\n(§3) The dose volume was 10 mL/kg.\nTGI (%)=(Vcontrol−Vtreated)/(Vcontrol−Vnitial)*100."}, "[5]": {"conditions": "mouse, in vivo", "experimental": "Data collected were the same as in the Charles River xenograft study—clinical signs, body weight, tumor volume, blood samples from 3 mice/group for hematology and clinical chemistry (ALT, AST, BUN, creatinine, CK), and tissue samples collected and fixed from the same 3 mice. Liver, kidneys, and small intestine also were weighed.\nas §3"}, "[6]": {"test": "Toxicology in DLBCL3 patient derived xenograft mice", "assay_type": "in vivo, mouse", "conditions": "within the first 7 days", "experimental": "as §3"}, "[7]": {"conditions": "mouse, in vivo", "remark": "listed apart in the source", "procedure": "(§4) Mice were observed daily for clinical signs of toxicity and effects on body weight. After the last dose, three mice/group were euthanized and necropsied. At euthanasia, blood samples were taken for hematology analyses and to measure AST and CK activities and bilirubin and creatinine concentrations. At necropsy, samples of samples of femur, both kidneys, liver, small intestine, and injection site were taken and fixed.\n(§5) The dose volume was 10 mL/kg. At the end of the two-to three-week dosing period, mice were euthanized and three/group were necropsied. Mice that died or were euthanized early for humane reasons also were necropsied. In life, mice were monitored regularly and weighed daily, and tumors were measured with digital Vernier calipers (Mitutoyo) every other day. Tumor volume was calculated as length (mm)×width (mm)2/2; length and width were the longest and shortest diameters, respectively. At euthanasia, at the end of the dosing period blood samples were taken for hematology analyses and clinical chemistry analyses that included AST and CK activities and bilirubin and creatinine concentrations (plus ALT activity and BUN concentration in the Jackson Laboratory study). At necropsy, samples of femur, both kidneys, liver, small intestine, and injection site were collected and fixed. These were subsequently processed and examined by light microscopy for histopathologic findings. Also at necropsy, the tumors were removed and divided in two. One piece was fixed in 10% neutral buffered formalin for 24 h at room temperature and embedded in paraffin; the other was snap frozen for RNA and protein analysis. Tumor growth inhibition (TGI) for all xenograft experiments was calculated following the formula:"}, "[8]": {"test": "Toxicology in DOHH2 xenograft mice", "conditions": "DOHH2 xenograft; Doxorubicin 3 mg/kg Once a week; normal [5-20]", "procedure": "as §4, §5"}, "[9]": {"conditions": "purified T cells from healthy donors, T cells viability (#1)"}, "[10]": {"conditions": "purified T cells from healthy donors, T cells viability (#2)"}, "[11]": {"conditions": "purified T cells from healthy donors, T cells viability (#3)"}}, "note": "Where a name gives a salt, the structure may show the parent alone. Residues, ends and D or L forms follow the SMILES beside them. *: point of attachment. Cbz = O=C(OCc1ccccc1)*", "data": [{"compound": "Cc1nn(C)c(C)c1CCOc1c(-c2ccc3c(c2)c(CN(C)C)nn3C)ccc(F)c1F", "note": "[IMP-1088, reference compound]", "values": [{"measurement": "TNFa secretion", "setting": "T cells", "value": "increasing the secretion"}, {"measurement": "level of IL-5, IL-10 and IL-13", "setting": "T cells", "value": "significantly reduced"}, {"measurement": "level of IL-6, IL-8 and IFN-gamma", "setting": "T cells", "value": "significantly reduced"}, {"measurement": "viability at 4 days, 20 nM", "setting": "[1]; [9]", "value": 9, "unit": "%"}, {"measurement": "viability at 4 days, 100 nM", "setting": "[1]; [9]", "value": 10, "unit": "%"}, {"measurement": "viability at 4 days, 500 nM", "setting": "[1]; [9]", "value": 6, "unit": "%"}, {"measurement": "viability at 4 days, 20 nM", "setting": "[1]; [10]", "value": 61, "unit": "%"}, {"measurement": "viability at 4 days, 100 nM", "setting": "[1]; [10]", "value": 59, "unit": "%"}, {"measurement": "viability at 4 days, 500 nM", "setting": "[1]; [10]", "value": 59, "unit": "%"}, {"measurement": "viability at 4 days, 20 nM", "setting": "[1]; [11]", "value": 74, "unit": "%"}, {"measurement": "viability at 4 days, 100 nM", "setting": "[1]; [11]", "value": 70, "unit": "%"}, {"measurement": "viability at 4 days, 500 nM", "setting": "[1]; [11]", "value": 70, "unit": "%"}]}, {"compound": "CC(C)C[C@@H](C=O)NC(=O)[C@H](CC(C)C)NC(=O)[C@H](CC(C)C)NC(=O)OCc1ccccc1", "note": "[MG132] (Cbz-Leu-Leu-Leu-aldehyde)", "values": [{"measurement": "levels of the 4 SFK proteins (Src, Lyn, Hck, Lck)", "setting": "[2]", "value": "partial or complete restoration"}]}, {"compound": "Cc1nn(C)c(C)c1N[S+](=O)([O-])c1c(Cl)cc(-c2ccnc(N3CCNCC3)c2)cc1Cl", "note": "[PCLX-002]", "values": [{"measurement": "level of IL-5, IL-10 and IL-13", "setting": "T cells", "value": "significantly reduced"}, {"measurement": "level of IL-6, IL-8 and IFN-gamma", "setting": "T cells", "value": "significantly reduced"}, {"measurement": "viability at 4 days, 20 nM", "setting": "[1]; T cells viability (#1)", "value": 9, "unit": "%"}, {"measurement": "viability at 4 days, 100 nM", "setting": "[1]; T cells viability (#1)", "value": 9, "unit": "%"}, {"measurement": "viability at 4 days, 500 nM", "setting": "[1]; T cells viability (#1)", "value": 9, "unit": "%"}, {"measurement": "viability at 4 days, 20 nM", "setting": "[1]; T cells viability (#2)", "value": 65, "unit": "%"}, {"measurement": "viability at 4 days, 100 nM", "setting": "[1]; T cells viability (#2)", "value": 65, "unit": "%"}, {"measurement": "viability at 4 days, 500 nM", "setting": "[1]; T cells viability (#2)", "value": 65, "unit": "%"}, {"measurement": "viability at 4 days, 20 nM", "setting": "[1]; T cells viability (#3)", "value": 75, "unit": "%"}, {"measurement": "viability at 4 days, 100 nM", "setting": "[1]; T cells viability (#3)", "value": 75, "unit": "%"}, {"measurement": "viability at 4 days, 500 nM", "setting": "[1]; T cells viability (#3)", "value": 69, "unit": "%"}, {"measurement": "Clearance", "setting": "[3]", "value": 5, "unit": "mL/min/kg"}]}, {"compound": "Cc1nc(Nc2ncc(C(=O)Nc3c(C)cccc3Cl)s2)cc(N2CCN(CCO)CC2)n1", "note": "[dasatinib]", "values": [{"measurement": "HGAL and Arf1 protein levels", "setting": "[4]", "value": "no effect"}]}, {"compound": "COc1cccc2c1C(=O)c1c(O)c3c(c(O)c1C2=O)C[C@@](O)(C(=O)CO)C[C@@H]3O[C@H]1C[C@H](N)[C@H](O)[C@H](C)O1", "note": "[doxorubicin, Doxorubicin hydrochloride, reference compound]", "values": [{"measurement": "TGI", "setting": "DOHH2 tumors", "value": 57, "unit": "%"}, {"measurement": "effect on BL2 tumor growth", "setting": "BL2 xenografts", "value": "no effect"}, {"measurement": "Absolute Lymphocyte cells", "setting": "[5]", "value": "2.28 ± 0.4"}, {"measurement": "Absolute Monocyte cells", "setting": "[5]", "value": "0.7 ± 0.19"}, {"measurement": "Hemoglobin", "setting": "[5]", "value": "13.6 ± 0.21", "unit": "g/dL"}, {"measurement": "MCH", "setting": "[5]", "value": "13.6 ± 0.12"}, {"measurement": "ROW %", "setting": "[5]", "value": "17.03 ± 0.15", "unit": "%"}, {"measurement": "toxicity of doxorubicin treatment", "setting": "[6]", "value": "severe drug toxicity and death in the majority of tumor bearing mice"}, {"measurement": "reduced body weight", "setting": "[7]", "value": "up to 8%"}, {"measurement": "MPV", "setting": "[8]", "value": "6.2 ± 0.15", "unit": "fL"}]}, {"compound": "C=CC(=O)N1CCC[C@@H](n2nc(-c3ccc(Oc4ccccc4)cc3)c3c(N)ncnc32)C1", "note": "[ibrutinib]", "values": [{"measurement": "HGAL and Arf1 protein levels", "setting": "[4]", "value": "no effect"}]}]}
